From US20240114903A1, “SYNERGISTIC MIXTURES COMPRISING PYRETHRUM FOR ARTHROPOD TOXICITY AND REPELLENCY” (University of Florida Research Foundation, Incorporated, priority 2021, published 2024)
Where a name gives a salt, the structure may show the parent alone. Read-outs that look alike come from different tables or passages of the source.

Assays:
[1] = system: female Aedes aegypti mosquitoes; type: in vivo; conditions: screened individually at the sublethal concentrations used in the mixtures (TCA 10, TFA 50 μg/cm^2)
[2] = system: Orlando strain Aedes aegypti females; conditions: essential oil or PBO alone, topical
Experimental: Plant essential oils were obtained from Berje, Inc. (Carteret, NJ, USA). […] Sucrose for sugar water was obtained from Domino (Baltimore, MD, USA).
Pupae were provided by the USDA prior to experiments.
J. Med. Entomol. […] Topical applications were performed by anesthetizing adult female mosquitoes on ice for 5 min, and then placing them on a cold, glass Petri dish to prevent reanimation. A Whatman No. 2 filter paper was used to prevent mosquitoes from coming in contact with excess condensation. A 0.2 μL volume of each treatment was applied to the pronotum of each mosquito using a Hamilton (Reno, NV, USA) repeating applicator with a gastight Hamilton syringe and placed in 470 mL deli paper cups. […] Ten mosquitoes were treated for each concentration representing one replicate, and at least three different cohorts of mosquitoes were used for each concentration in an effort to control for biological variability in the mosquitoes produced by the Orlando colony. A cohort was defined as a distinct rearing group (i.e., adult mosquitoes obtained from distinct batches of eggs placed in water to initiate development each week). Controls were performed using the vehicle, ethanol. Tulle fabric, fastened to the cup with a deli cup lid rim (center removed), was used to keep mosquitoes from escaping. Deli cups containing ten treated mosquitoes per concentration per replicate were placed in an incubator for the remainder of the experimental interval and kept at the same temperature and light cycle as during rearing. Knockdown, defined as the inability to fly or maintain normal standing posture, was recorded at 1 h, and mortality was recorded at 24 h. Mortality was defined as no movement, even after gently tapping the cup several times to assess response.
VI. Potentiation and antagonism of organophosphorus and carbamate insecticides. Econ. Entomol. […] To compare effects at discrete doses to one another or between those and control, an ANOVA (α=0.05) with a Tukey's post-test was used with an α value of 0.05.

SMILES: CC(C)=CC1C(C(=O)O)C1(C)C (stereo not drawn) [TCA, 1R-trans-chrysanthemic acid]
- toxicity by themselves [1]: no toxicity

SMILES: CC1(C)[C@H](C=C(Cl)Cl)[C@H]1C(=O)O [TFA, (1R,3S)-3-(2,2-dichloroethenyl)-2,2-dimethylcyclopropanecarboxylic acid]
- toxicity by themselves [1]: no toxicity

SMILES: CCCCOCCOCCOCc1cc2c(cc1CCC)OCO2 [PBO, Piperonyl butoxide]
- 1 h % Knockdown ± SE, Synergist ([2]; 2 μg/insect): 6.7 ± 3.7%
- 24 h % Mortality ± SE, Synergist ([2]; 2 μg/insect): 6.7 ± 2.4%
- 1 h % Knockdown ± SE, Synergist ([2]; 10 μg/insect): 21.7 ± 4 %
- 24 h % Mortality ± SE, Synergist ([2]; 10 μg/insect, listed as Piperonyl butoxide (PBO)): statistically significant
